The target in test [1] is T1, G9a (913-1913) (Homo sapiens, UniProt Q96KQ7).
T1 construct: G9a (913-1913)
Description: Filter-paper methylation assay, G9a. In kind it is biochemical. The following applies: 20 nM enzyme, H3 (1-21 aa) peptide, 1 h.

Test [2] has as its target T2, GLP1 (951-1235) (Homo sapiens, UniProt Q9H9B1).
T2 sequence (Q9H9B1 982-1266 limits assumed): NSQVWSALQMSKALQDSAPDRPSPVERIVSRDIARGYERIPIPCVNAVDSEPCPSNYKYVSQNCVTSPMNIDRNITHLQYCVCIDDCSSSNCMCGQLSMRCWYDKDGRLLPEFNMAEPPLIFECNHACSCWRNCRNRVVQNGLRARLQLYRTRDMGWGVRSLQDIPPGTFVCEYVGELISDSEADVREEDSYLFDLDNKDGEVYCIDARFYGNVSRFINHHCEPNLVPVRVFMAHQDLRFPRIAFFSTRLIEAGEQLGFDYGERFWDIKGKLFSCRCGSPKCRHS
Description: biochemical. The following applies: 10 nM enzyme, H3 (1-21 aa) peptide, 1 h.

For test [3], the target named is T3, SET7/9 Full-length (Homo sapiens, UniProt Q8WTS6).
T3 construct: SET7/9 Full-length
T3 sequence (Q8WTS6 1-366): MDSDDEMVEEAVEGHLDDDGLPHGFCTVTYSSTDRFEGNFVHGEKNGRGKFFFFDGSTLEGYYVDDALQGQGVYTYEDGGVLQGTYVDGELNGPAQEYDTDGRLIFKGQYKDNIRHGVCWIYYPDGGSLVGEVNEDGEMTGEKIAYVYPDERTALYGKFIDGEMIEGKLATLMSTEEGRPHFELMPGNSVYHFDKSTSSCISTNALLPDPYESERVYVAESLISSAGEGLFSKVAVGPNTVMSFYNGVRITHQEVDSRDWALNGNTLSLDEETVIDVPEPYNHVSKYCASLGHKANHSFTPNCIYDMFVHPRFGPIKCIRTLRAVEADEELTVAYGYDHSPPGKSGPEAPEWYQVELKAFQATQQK
Description: Filter-paper methylation assay, SET7/9. In kind it is biochemical. The conditions noted are these: 150 nM enzyme, H3 (1-21 aa) peptide, 3 h.

Test [4] deals with T4, SET8 (191-352) (Homo sapiens, UniProt Q9NQR1).
T4 construct: SET8 (191-352)
T4 sequence (Q9NQR1 191-352 isoform Q9NQR1-2): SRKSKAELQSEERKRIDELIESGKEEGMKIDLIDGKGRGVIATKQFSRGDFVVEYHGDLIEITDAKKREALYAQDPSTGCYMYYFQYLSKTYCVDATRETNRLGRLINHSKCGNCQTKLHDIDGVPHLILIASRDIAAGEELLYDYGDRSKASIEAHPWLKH
Description: Filter-paper methylation assay, SET8. In kind it is biochemical. The following applies: 1000 nM enzyme, H4 (10-30 aa) peptide, 8 h.

Test [5] concerns the target T5, SETD2 (1347-1711) (Homo sapiens, UniProt Q9BYW2).
T5 construct: SETD2 (1347-1711)
T5 sequence (Q9BYW2 1347-1711): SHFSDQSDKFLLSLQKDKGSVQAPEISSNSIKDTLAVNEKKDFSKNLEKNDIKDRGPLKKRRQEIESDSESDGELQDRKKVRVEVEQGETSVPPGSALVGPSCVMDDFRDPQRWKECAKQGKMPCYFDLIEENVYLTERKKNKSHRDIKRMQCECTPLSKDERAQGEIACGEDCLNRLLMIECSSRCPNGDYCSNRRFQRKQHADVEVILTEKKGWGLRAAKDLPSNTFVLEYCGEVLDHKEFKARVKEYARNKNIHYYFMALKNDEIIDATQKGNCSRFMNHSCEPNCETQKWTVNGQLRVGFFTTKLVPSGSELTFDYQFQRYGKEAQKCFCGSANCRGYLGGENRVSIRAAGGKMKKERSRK
Description: Filter-paper methylation assay, SETD2. The format is biochemical. The conditions noted are these: 250 nM enzyme, H3 (20-50 aa) peptide, 4 h.

The target of test [6] is T6, PRMT1 (10-352) (Homo sapiens, UniProt Q99873).
T6 construct: PRMT1 (10-352)
T6 sequence (Q99873 10-352 isoform Q99873-3, species assumed): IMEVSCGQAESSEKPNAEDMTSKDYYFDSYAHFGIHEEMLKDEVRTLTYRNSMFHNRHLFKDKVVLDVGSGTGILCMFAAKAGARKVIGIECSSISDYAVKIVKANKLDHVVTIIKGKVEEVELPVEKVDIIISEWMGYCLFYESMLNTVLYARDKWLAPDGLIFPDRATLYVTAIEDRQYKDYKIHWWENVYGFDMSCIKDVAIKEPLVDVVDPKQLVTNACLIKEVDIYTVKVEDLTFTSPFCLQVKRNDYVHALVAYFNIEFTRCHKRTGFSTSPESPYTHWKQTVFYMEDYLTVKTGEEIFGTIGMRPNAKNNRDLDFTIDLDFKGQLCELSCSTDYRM
The test is described as follows: Filter-paper methylation assay, PRMT1. In kind it is biochemical. The following applies: 100 nM enzyme, RGG peptide, 1.5 h.

Test [7] addresses T7, PRMT3 (211-531) (Homo sapiens, UniProt O60678).
T7 construct: PRMT3 (211-531)
The test is described as follows: Filter-paper methylation assay, PRMT3. The conditions noted are these: 100 nM enzyme, RGG peptide, 3 h. In kind it is biochemical.

The target in test [8] is T8, SUV39H2 (112-410) (Homo sapiens, UniProt Q9H5I1).
T8 construct: SUV39H2 (112-410)
T8 sequence (Q9H5I1 112-410): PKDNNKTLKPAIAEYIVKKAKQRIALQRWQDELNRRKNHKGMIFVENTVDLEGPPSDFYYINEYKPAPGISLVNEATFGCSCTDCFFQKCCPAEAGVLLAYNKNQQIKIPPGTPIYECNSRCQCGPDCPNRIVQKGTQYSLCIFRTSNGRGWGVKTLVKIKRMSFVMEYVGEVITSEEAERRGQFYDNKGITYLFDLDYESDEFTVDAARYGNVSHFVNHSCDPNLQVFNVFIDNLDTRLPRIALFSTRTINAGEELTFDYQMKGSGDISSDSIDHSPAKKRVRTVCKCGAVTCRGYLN
The test is described as follows: Filter-paper methylation assay, SUV39H2. The format is biochemical. The following applies: 5 nM enzyme, H3 (1-21 aa) peptide, 4 h.

In test [9] the target is T9, CARM1 (19-608) (Homo sapiens, UniProt Q86X55).
T9 construct: CARM1 (19-608)
T9 sequence (Q86X55 19-608): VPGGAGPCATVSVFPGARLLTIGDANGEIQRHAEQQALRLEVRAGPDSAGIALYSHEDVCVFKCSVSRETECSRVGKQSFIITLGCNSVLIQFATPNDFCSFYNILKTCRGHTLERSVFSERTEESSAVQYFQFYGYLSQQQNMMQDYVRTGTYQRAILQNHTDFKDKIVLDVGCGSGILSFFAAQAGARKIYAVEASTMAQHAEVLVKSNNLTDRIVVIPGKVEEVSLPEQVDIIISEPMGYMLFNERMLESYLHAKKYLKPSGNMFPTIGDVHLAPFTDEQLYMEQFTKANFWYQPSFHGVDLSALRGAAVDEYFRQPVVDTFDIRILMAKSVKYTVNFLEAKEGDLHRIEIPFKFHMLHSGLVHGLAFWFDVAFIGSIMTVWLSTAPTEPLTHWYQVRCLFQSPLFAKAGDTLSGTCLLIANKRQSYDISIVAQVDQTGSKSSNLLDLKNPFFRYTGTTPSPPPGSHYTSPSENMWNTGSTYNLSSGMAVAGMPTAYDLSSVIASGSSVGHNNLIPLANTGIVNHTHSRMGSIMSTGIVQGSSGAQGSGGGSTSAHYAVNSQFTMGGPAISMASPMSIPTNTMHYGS
Description: Filter-paper methylation assay, CARM1. In kind it is biochemical.

The target in test [10] is T10, SMYD2 Full-length (Homo sapiens, UniProt Q9NRG4).
T10 construct: SMYD2 Full-length
T10 sequence (Q9NRG4 whole entry): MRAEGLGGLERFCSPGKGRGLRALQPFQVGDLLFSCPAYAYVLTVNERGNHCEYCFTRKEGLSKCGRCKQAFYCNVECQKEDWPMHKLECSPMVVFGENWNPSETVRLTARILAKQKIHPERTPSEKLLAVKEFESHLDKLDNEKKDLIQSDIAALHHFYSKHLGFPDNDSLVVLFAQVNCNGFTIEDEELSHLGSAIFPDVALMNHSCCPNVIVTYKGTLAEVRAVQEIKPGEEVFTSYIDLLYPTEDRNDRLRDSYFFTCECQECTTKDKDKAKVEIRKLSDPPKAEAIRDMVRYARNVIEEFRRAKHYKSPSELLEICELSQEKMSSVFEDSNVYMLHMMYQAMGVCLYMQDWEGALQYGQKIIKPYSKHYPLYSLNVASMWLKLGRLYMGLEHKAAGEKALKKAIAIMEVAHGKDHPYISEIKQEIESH
Description: Filter-paper methylation assay, SMYD2. The conditions noted are these: 50 nM enzyme, p53 (360-393 aa) peptide, 10 h; read-out: IC50 SMYD2-FL. The format is biochemical.

For test [11], the system named is histone 3 lysine 36 tri-methyl. The test is described as follows: Cellular assay, histone methylation in HEK-293T cells. In kind it is cell-based. The following applies: "in vivo", up to 100 μM, 24 h, H3K36 tri-methyl blot.

Read-outs that look alike come from different tables or passages of the source.

T1 sequence (Q96KQ7 913-1193): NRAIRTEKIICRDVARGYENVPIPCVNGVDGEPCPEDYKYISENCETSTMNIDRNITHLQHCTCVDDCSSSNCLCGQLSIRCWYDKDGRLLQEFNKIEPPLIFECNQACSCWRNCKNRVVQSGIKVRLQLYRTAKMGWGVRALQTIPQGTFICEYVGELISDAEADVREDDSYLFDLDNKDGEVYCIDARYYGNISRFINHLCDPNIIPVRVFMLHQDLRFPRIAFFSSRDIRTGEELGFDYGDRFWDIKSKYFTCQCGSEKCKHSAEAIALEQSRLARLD
T7 sequence (O60678 211-531): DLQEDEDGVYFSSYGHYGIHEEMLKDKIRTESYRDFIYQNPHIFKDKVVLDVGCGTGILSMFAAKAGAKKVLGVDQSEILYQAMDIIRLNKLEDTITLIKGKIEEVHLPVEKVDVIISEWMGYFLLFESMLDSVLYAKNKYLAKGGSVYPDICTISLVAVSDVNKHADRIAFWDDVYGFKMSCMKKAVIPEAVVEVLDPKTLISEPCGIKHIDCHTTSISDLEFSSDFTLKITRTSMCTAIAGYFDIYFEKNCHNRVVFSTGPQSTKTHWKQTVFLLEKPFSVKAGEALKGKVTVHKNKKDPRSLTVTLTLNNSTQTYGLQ

By IC50 is commonly meant the concentration needed to halve the response being measured. `CCCN[C@@H](CC[C@H](N)C(=O)OC)C[C@H]1O[C@@H](n2ccc3c(N)ncnc32)C(O)C1O` (stereo partly shown) [Compound 116e]: the IC50 is > 100 µM in [1]; > 100 µM in test [2]; 10.3 µM in [3]; > 100 µM in test [4]; ~100 µM in test [5]; > 100 µM in test [6]. For the same compound, the IC50 in [7] is 9.7 µM; in test [8], > 100 µM; in [9], 42 µM; in test [10] it was 9 µM.
On to `CCCN[C@@H](CC[C@H](N)C(=O)O)C[C@H]1O[C@@H](n2cnc3c(N)ncnc32)[C@H](O)[C@@H]1O` [Compound 102], for which the IC50 in [1] is > 100 µM; in test [2], > 100 µM; in test [3] it was 2.2 µM; in test [4] it was > 100 µM; in test [5], 0.8 µM; in [6], 9.5 µM. Besides, the IC50 in test [7] was ~100 µM; in test [8], 9.8 µM; in test [9] (300 nM enzyme, H3 (1-40 aa) peptide, 7 h, read-out: IC50 CARM1), 3 µM; in test [10], 0.5 µM. Moreover, in [11], the inhibiting histone methyltransferase entry is reported as “showed activity in inhibiting histone methyltransferase”.
Turning to `Nc1ncnc2c1ncn2C1OC(CC(N)CCCC(N)C(=O)O)C(O)C1O` (stereo not shown) [Compound 300], the IC50 in [1] is ~100 µM; in [2], ~100 µM; in [3], ~70 µM; in test [4], ~70 µM; in [5], 21.2 µM; in test [6], 18.7 µM. For the same compound, the IC50 in [7] is 9.9 µM; in test [8] it was 35.1 µM; in test [9] it was 4.4 µM; in [10], 37 µM.
Regarding `COC(=O)C(N)CCC(CC1OC(n2cnc3c(N)ncnc32)C(O)C1O)NCCNC(=N)N` (stereo not shown) [Compound 109], the IC50 in test [1] was > 100 µM; in test [2], > 100 µM; in test [3] it was 0.19 µM; in test [4] it was > 100 µM; in test [5], 37 µM; in test [6], 2 µM. For the same compound, the IC50 was 1.8 µM in test [7], 33 µM in [8], 0.05 µM in test [9] and 1.7 µM in test [10]. Also, the “selectivity for CARM1 inhibition” value in test [9] (among the subset of PMTs screened) is on record as “apparent selectivity”.
`NC(=O)C(N)CCC(CC1OC(n2cnc3c(N)ncnc32)C(O)C1O)NCc1ccccc1` (stereo not shown) [Compound 111]: the IC50 in test [1] is > 100 µM; in test [2], > 100 µM; in test [3], > 100 µM; in test [4] it was > 100 µM; in test [5], 46.5 µM; in test [6], > 100 µM. Moreover, the IC50 in test [7] was 33 µM; in [8], > 100 µM; in test [9] it was ~80 µM; in [10], > 100 µM.

The values are drawn from patent US9493501B2, “Methyltransferase inhibitors for treating cancer” (MEMORIAL SLOAN-KETTERING CANCER CENTER, priority 2011, dated 2016).
